Results reported in the CheMixHub viscosity set.
± gives the uncertainty stated by the source.

Experiment: xn = mol fraction of the nth substance listed

CN1CCC[C@H]1c1cccnc1 + O
viscosity [mPa·s]
Details | 298.15 K | 303.15 K | 308.15 K | 318.05 K | 323.15 K
100 kPa, x1 = 0.006 | – | 1.33 ± 0.03 | – | 1.15 ± 0.02 | –
100 kPa, x1 = 0.1 | – | 7.1 ± 0.2 | – | 4.1 ± 0.1 | –
100 kPa, x1 = 0.3 | – | 14.2 ± 0.4 | – | 6.2 ± 0.2 | –
100 kPa, x1 = 0.4 | – | 17.3 ± 0.5 | – | 5.8 ± 0.2 | –
100 kPa, x1 = 0.5 | – | 11.1 ± 0.3 | – | 5 ± 0.1 | –
100 kPa, x1 = 0.6 | – | 5.8 ± 0.1 | – | 3.1 ± 0.1 | –
100 kPa, x1 = 0.7 | – | 4.5 ± 0.1 | – | 2.8 ± 0.1 | –
100 kPa, x1 = 0.8 | – | 4.8 ± 0.1 | – | 3.5 ± 0.1 | –
100 kPa, x1 = 0.9 | – | 2 ± 0.1 | – | 1.3 ± 0.1 | –
101 kPa, x1 = 0.1202 | 11.12 ± 0.31 | – | 6.629 ± 0.18 | – | 3.436 ± 0.1
101 kPa, x1 = 0.1977 | 19.96 ± 0.54 | – | 10.4 ± 0.29 | – | 4.771 ± 0.15
101 kPa, x1 = 0.2424 | 23.83 ± 0.65 | – | 12.08 ± 0.34 | – | 5.382 ± 0.17
101 kPa, x1 = 0.2592 | 25.19 ± 0.69 | – | 12.24 ± 0.35 | – | 5.493 ± 0.17
101 kPa, x1 = 0.2808 | 24.43 ± 0.67 | – | 12.19 ± 0.34 | – | 5.403 ± 0.17
101 kPa, x1 = 0.3047 | 23.6 ± 0.65 | – | 12.1 ± 0.34 | – | 5.304 ± 0.16
101 kPa, x1 = 0.3692 | 21.03 ± 0.57 | – | 11.15 ± 0.31 | – | 5.146 ± 0.16
101 kPa, x1 = 0.4852 | 15.84 ± 0.43 | – | 8.817 ± 0.24 | – | 4.426 ± 0.13
101 kPa, x1 = 0.6052 | 11.43 ± 0.31 | – | 6.572 ± 0.18 | – | 3.624 ± 0.1
101 kPa, x1 = 0.7285 | 7.954 ± 0.22 | – | 4.832 ± 0.13 | – | 2.834 ± 0.078
101 kPa, x1 = 0.8635 | 5.014 ± 0.14 | – | 3.811 ± 0.1 | – | 2.486 ± 0.067

NC=O + OCC(O)CO
viscosity [mPa·s], 101 kPa
Details | x2 = 0.057 | x2 = 0.12 | x2 = 0.189 | x2 = 0.266 | x2 = 0.352 | x2 = 0.449 | x2 = 0.559 | x2 = 0.685 | x2 = 0.83
303.15 K | 4.08 ± 0.04 | 5.13 ± 0.04 | 7.21 ± 0.06 | 11.1 ± 0.1 | 15.9 ± 0.1 | 27.5 ± 0.2 | 53.1 ± 0.3 | 106.8 ± 1.9 | 214.3 ± 6.9
318.15 K | 2.98 ± 0.03 | 3.52 ± 0.03 | 4.65 ± 0.04 | 6.53 ± 0.05 | 8.88 ± 0.07 | 14.1 ± 0.1 | 23.9 ± 0.2 | 42.7 ± 0.3 | 80.6 ± 1

NC=O + COCCO
101 kPa
Details | viscosity [mPa·s]
303 K, x1 = 0.1585 | 1.679 ± 0.29
303 K, x1 = 0.4194 | 2.286 ± 0.35
303 K, x1 = 0.5295 | 2.443 ± 0.37
303 K, x1 = 0.6283 | 2.625 ± 0.39
303 K, x1 = 0.717 | 2.859 ± 0.41
303 K, x1 = 0.8711 | 2.837 ± 0.41
303 K, x1 = 0.9381 | 2.945 ± 0.42
303.15 K, x1 = 0.1785 | 1.795 ± 0.027
313 K, x1 = 0.2971 | 1.632 ± 0.29
313 K, x1 = 0.4194 | 1.841 ± 0.31
313 K, x1 = 0.5295 | 1.958 ± 0.32
313 K, x1 = 0.6283 | 2.067 ± 0.33
313 K, x1 = 0.717 | 2.223 ± 0.35
313 K, x1 = 0.7978 | 2.339 ± 0.36
313 K, x1 = 0.8711 | 2.226 ± 0.35
318.15 K, x1 = 0.5726 | 1.885 ± 0.029

CC(C)C#N + Clc1ccccc1
viscosity [mPa·s], 101 kPa
Details | x2 = 0.1028 | x2 = 0.2026 | x2 = 0.3007 | x2 = 0.4004 | x2 = 0.5004 | x2 = 0.6004 | x2 = 0.6996 | x2 = 0.7998 | x2 = 0.8999
303.15 K | 0.487 ± 0.008 | 0.513 ± 0.008 | 0.537 ± 0.008 | 0.562 ± 0.008 | 0.585 ± 0.008 | 0.61 ± 0.008 | 0.636 ± 0.008 | 0.663 ± 0.008 | 0.689 ± 0.008
308.15 K | 0.456 ± 0.008 | 0.48 ± 0.008 | 0.503 ± 0.008 | 0.525 ± 0.008 | 0.545 ± 0.008 | 0.569 ± 0.008 | 0.592 ± 0.008 | 0.616 ± 0.008 | 0.643 ± 0.008

CCCCCCCCCCC + CCCCCCC
viscosity [mPa·s]
Details | 100 kPa | 101.33 kPa
297.15 K, x2 = 0.5 | – | 0.6901 ± 0.0097
298.15 K, x2 = 0.1084 | – | 0.9818 ± 0.012
298.15 K, x2 = 0.2093 | – | 0.8983 ± 0.011
298.15 K, x2 = 0.3019 | – | 0.8173 ± 0.01
298.15 K, x2 = 0.4051 | – | 0.7452 ± 0.0097
298.15 K, x2 = 0.5067 | – | 0.672 ± 0.0089
298.15 K, x2 = 0.6076 | – | 0.6072 ± 0.0082
298.15 K, x2 = 0.7041 | – | 0.5479 ± 0.0076
298.15 K, x2 = 0.8052 | – | 0.4894 ± 0.007
298.15 K, x2 = 0.8998 | – | 0.4335 ± 0.0063
302.98 K, x2 = 0.8 | 0.4886 ± 0.021 | –
303.09 K, x2 = 0.5 | 0.6364 ± 0.0091 | 0.6364 ± 0.0091
312.85 K, x2 = 0.5 | – | 0.563 ± 0.0083
323.04 K, x2 = 0.5 | 0.5009 ± 0.0077 | 0.5009 ± 0.0077
